This is an account of results in patent publication US9750817B2, “Amphotericin B derivatives” (priority 2015, dated 2017).

Converted amounts (≈) assume the structure as drawn. Like-named read-outs stand apart in the source and are kept apart here.

The nature of data set [1]: Solubility in double-distilled water. Type of data set: physicochemical. Here is the method:
Physical characteristics of AMB derivatives and of AMB were tested, including solubility.

The subject of data set [2] is Aspergillus fumigatus. In words: MIC/MFC broth dilution (CLSI), clinical isolates. The following applies: A. fumigatus. Type of data set: cell-based. The procedure:
(§1) Isolates of Aspergillus fumigatus, Aspergillus flavus, Aspergillus terreus Aspergillus niger, Rhizopus oryzae, Candida albicans and Candida krusei were isolated from patients in Israeli hospitals and used for in vitro efficacy studies.
(§2) Efficacy was evaluated by measuring minimum inhibitory concentration (MIC) and minimum fungicidal concentration (MFC) values for fungal isolates. Testing of isolates was performed according to the Clinical & Laboratory Standards Institute (CLSI) method. (CLSI. 2008. M27-A3 Reference method for broth dilution antifungal susceptibility testing of yeasts; Approved Standard—3rd edition. Clinical and Laboratory Standards Institute, Wayne). RPMI MOPS media was used throughout the experiment as growth and dilution media. Spores and yeast cells were harvested in 0.05% Tween from 24-48 h and cultures were grown in rich yeast extract-agar-glucose (YAG) medium (composed of: 0.5% w/v yeast extract, 1% w/v glucose, 10 millimolar (mM) MgCl2, supplemented with 0.1% v/v trace elements solution, and 0.2% v/v vitamin mix). The spores and the yeast cells were counted and diluted to a final concentration of 2.5×10^4 per ml. A stock solution of 5 mg/ml was prepared in dimethylsulfoxide for free AMB. Compounds 4 and 6 were prepared in sterile saline. Double dilutions of each drug were performed in 100 μL volume of RPMI-MOPS in 96 well plates beginning with a final concentration of 32 micrograms (μg)/well of each drug to 0.06 μg/well. 2500 spores or yeast cells were added to each well. Results were recorded 48 h post incubation at 37° C. […] The MFC was defined as the lowest drug concentration that yielded three or fewer colonies (i.e. 99% of the inoculum was killed).

Data set [3] can be described thus: Solubility in 0.9% saline after vortex, sonication and centrifuge. Type of data set: physicochemical.
The nature of data set [4]: Stability (hydrolysis) in phosphate buffered saline. Type of data set: physicochemical.
Data set [5] concerns Aspergillus flavus. Briefly: MIC/MFC broth dilution (CLSI), clinical isolates. Type of data set: cell-based. The settings on record: A. Flavus, 3 isolates, 48 h at 37° C. Here is the method: as §1, §2
Data set [6] concerns Aspergillus niger. In words: MIC/MFC broth dilution (CLSI), clinical isolates. Type of data set: cell-based. The following applies: A. niger, 3 isolates, 48 h at 37° C. Here is the method:
as §1, §2

The subject of data set [7] is Aspergillus terreus. In words: MIC/MFC broth dilution (CLSI), clinical isolates. Type of data set: cell-based. The settings on record: listed as printed C. terreus, 1 isolate, 48 h at 37° C. Here is the method:
as §1, §2

Data set [8] concerns Candida albicans. In words: MIC/MFC broth dilution (CLSI), clinical isolates. Type of data set: cell-based. The following applies: C. albicans, 2 isolates, 48 h at 37° C. The procedure: as §1, §2
Data set [9] relates to Candida krusei. Briefly: MIC/MFC broth dilution (CLSI), clinical isolates. Type of data set: cell-based. The following applies: C. krusei, 3 isolates, 48 h at 37° C. Here is the method:
as §1, §2

Data set [10] concerns Rhizopus oryzae. In words: MIC/MFC broth dilution (CLSI), clinical isolates. Type of data set: cell-based. The settings on record: 1 isolate, 48 h at 37° C. Here is the method: as §1, §2
Data set [11] deals with human erythrocytes. Briefly: In-vitro toxicity (hemolysis) study. Type of data set: cell-based. The following applies: 6 μg/ml. Here is the method:
Reference is made to FIG. 4B. Fresh human erythrocytes were diluted 1:100 in PBS, and incubated in an Eppendorf tube while rotating slowly in the presence of 6 μg/ml of each of compound 4 and compound 6. Amphotericin B was used as positive control. Sterile double distilled water served as a control for 100% hemolysis. After 1, 3, 5 and 21 h, 20 μl of each test tube were removed and diluted in 180 μl PBS. Samples were centrifuged for 10 minutes at 1200 RPM and the optical density of the supernatant was measured at 425 nm.

Data set [12] deals with mouse embryonic fibroblasts (MEFs). In words: MTT viability assay in mouse embryonic fibroblasts. Type of data set: cell-based. The procedure:
Reference is made to FIG. 4C. Mouse embryonic fibroblasts were used in this example. 1×10^4 mouse embryonic fibroblasts (MEFs) per well were seeded in 96-well plates and incubated at 37° C. After 24 h the media was replaced with 100 μl culture medium containing serial dilutions of AMB, compounds 4 or 6, or left untreated. After 24 h, the media was replaced by fresh media (100 μl per well) containing 1 mg/ml MTT (3-(4,5-Dimethylthiazol-2-yl)-2,5-Diphenyltetrazolium Bromide, ((Biological Industries, Israel)) reagent and the cells were incubated for an additional 3 h at 37° C. MTT-formazan crystals were dissolved by the addition of 100 μl per well of extraction solution (20% SDS, 50% N,N-dimethyl formamide (DMF), pH=4.7) and incubation for 16 h at 37° C. Absorbance at 570 nm was recorded on a Biotek Synergy HT plate reader.
The results were expressed as the percentage of living cells relative to the untreated control and are depicted in FIG. 4C. The inhibition concentration (IC50) value is the concentration of the compound which inhibited cell growth by 50%.

In data set [13] the test system is ICR mice. In words: In vivo toxicity, intravenous injection. The settings on record: female ICR mice, intravenous. Here is the method:
In-vivo toxicity was determined in mice using 6 week old female ICR mice (n=6). Different concentrations of each formulation were injected intravenously through the tail vein, 0.2 ml per mouse, until death was observed. PAD-AMB conjugates were prepared in sterile saline solution and were filtered through 0.45-micrometer pore-size cellulose acetate sterile filters prior to injection.

For data set [14], the system named is A. fumigatus (Af 293). Briefly: MIC of compound 6, AMB and FMOC-6. Type of data set: cell-based, Aspergillus fumigatus. Here is the method:
as §2
(§3) In addition, the amine protected equivalent of compound 6 in which the amine of compound 6 was protected with an FMOC group was tested (designated FMOC-6) to determine MIC versus AMB and versus compound 6 against A. fumigatus (Af 293) and C. albicans (CBS562).

For data set [15], the system named is C. albicans (CBS562). In words: MIC of compound 6, AMB and FMOC-6. Type of data set: cell-based, Candida albicans. The procedure:
as §2, §3

In data set [1] (double-distilled water), `CC1C=CC=CC=CC=CC=CC=CC=CC(OC2OC(C)C(O)C(NC(=O)CCOCCOCCOCCOCCN)C2O)CC2OC(O)(CC(O)CC(O)C(O)CCC(O)CC(O)CC(=O)OC(C)C(C)C1O)CC(O)C2C(=O)O` (centres unmarked) [AMB-PEG4-amine] registered a Solubility of 300 µg/mL (≈ 256 µM). In [2] (strain not stated), this molecule showed an MIC of 2 to 3 µg/mL.
Regarding `COC(=O)C1C(O)CC2(O)CC(O)CC(O)C(O)CCC(O)CC(O)CC(=O)OC(C)C(C)C(O)C(C)C=CC=CC=CC=CC=CC=CC=CC(OC3OC(C)C(O)C(NC(=O)CCOCCOCCOCCOCCN)C3O)CC1O2` (centres unmarked) [AME-PEG4-amine], the Solubility result in [1] is reported as “Insoluble”.
Same read-out and setting: the figure for `COC(=O)[C@H]1[C@@H]2C[C@@H](O[C@@H]3O[C@H](C)[C@@H](O)[C@H](N)[C@@H]3O)/C=C/C=C/C=C/C=C/C=C/C=C/C=C/[C@H](C)[C@@H](O)[C@@H](C)[C@H](C)OC(=O)C[C@H](O)C[C@H](O)CC[C@@H](O)[C@H](O)C[C@H](O)C[C@](O)(C[C@@H]1O)O2` [Amphotericin B methyl ester, reference compound] is under 1 µg/mL.
The molecule `C[C@@H]1[C@H](O)[C@@H](C)/C=C/C=C/C=C/C=C/C=C/C=C/C=C/[C@H](O[C@@H]2O[C@H](C)[C@@H](O)[C@H](NC(=O)CCOCCOCCOCCOCCOCCOCCOCCOCCN)[C@@H]2O)C[C@@H]2O[C@](O)(C[C@@H](O)C[C@@H](O)[C@H](O)CC[C@@H](O)C[C@@H](O)CC(=O)O[C@H]1C)C[C@H](O)[C@H]2C(=O)O` [Compound 4, amphotericin B amide-PEG(8)-amine] showed a Solubility in data set [1] (double-distilled water) of 5500 µg/mL (≈ 4080 µM). The “increased solubility relative to corresponding non-PEG-conjugated AMB compounds” value in data set [3] was “greater than 5500 fold”. Also, the “hydrolysis after 4 hours” value in data set [4] (4 hours) is recorded as “no hydrolysis could be observed”. Further, in data set [4] (24 hours), the “level of hydrolysis after 24 hours” value is listed as 0.51%. Also, the MFC in data set [5] is 4 to 8 µg/mL; in [2] (4 isolates, 48 h at 37° C.) it was 4 to 16 µg/mL; in [6], 1 to 4 µg/mL; in data set [7], 32 µg/mL (≈ 23.7 µM); in data set [8], 4 µg/mL (≈ 2.97 µM); in data set [9], 8 µg/mL (≈ 5.94 µM). In [10], this molecule gave an MFC of 8 µg/mL (≈ 5.94 µM). Besides, the MIC is 4 to 8 µg/mL in [5]; 4 to 16 µg/mL in [2] (4 isolates, 48 h at 37° C.); 1 to 4 µg/mL in data set [6]; 32 µg/mL (≈ 23.7 µM) in data set [7]; 1 to 2 µg/mL in data set [8]; 4 to 8 µg/mL in data set [9]. Further, the MIC in [10] stood at 8 µg/mL (≈ 5.94 µM). In [11] (after 3 h of agitation), the “hemolytic activity” value is “small hemolytic activity”. In addition, the “toxicity to erythrocytes” value in data set [11] (assay conditions of FIG. 4B) is “less toxic (about four times less)”. Further, in data set [12] (24 h exposure, MTT), the “IC50 (concentration which inhibited cell growth by 50%)” value stood at 280 µg/mL. Also, in [12] (from IC50), the “times less toxic than AMB” value worked out at 40 times. Further, the “mouse LD50 fold higher than AMB” value in [13] is “at least 20 fold”. Further, in [13], the “signs of toxicity at the highest injectable doses” value is “did not show any signs of toxicity”. In [13] (tail vein), the LD50 result was “not reached”. Besides, the “Maximum Dose” value in [13] (tail vein) was found to be 22 mg/kg.
For `COC(=O)C1C(O)CC2(O)CC(O)CC(O)C(O)CCC(O)CC(O)CC(=O)OC(C)C(C)C(O)C(C)C=CC=CC=CC=CC=CC=CC=CC(OC3OC(C)C(O)C(NC(=O)CCOCCOCCOCCOCCOCCOCCOCCOCCNC(=O)OCC4c5ccccc5-c5ccccc54)C3O)CC1O2` (centres unmarked) [FMOC-6], the MIC in data set [14] and in data set [15] was over 32 µg/mL in each case.
